Read-outs that look alike come from different tables or passages of the source.
How the values were obtained:
K. pneum. 39645 = assay: In vitro antibacterial activity, MIC (modified Autotiter method); assay type: cell-based, Klebsiella pneumoniae; conditions: 18-20 hours at 37° C.; for MIC: Klebsiella pneumoniae, 20 h, read-out: MIC K. pneum. 39645
How it was run: (§1)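 Modified Goss Autotiter dilution. 1,000 mcg./ml. solution → twofold series in sterile H2O → inoculated 2x glucose semisynthetic medium added. Tested finals 500–0.06 mcg./ml.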

S. Aureus Smith = assay: as above; assay type: cell-based, Staphylococcus aureus; conditions: 18-20 hours at 37° C.; for MIC: Staphylococcus aureus, 20 h, read-out: MIC S. Aureus Smith
How it was run: as §1

P. mirab. MGH-1 = assay: as above; assay type: cell-based, Proteus mirabilis; conditions: 18-20 hours at 37° C.; for MIC: Proteus mirabilis, 20 h, read-out: MIC P. mirab. MGH-1
How it was run: as §1

A. niger 16404 = assay: In vitro antifungal activity, MIC (modified Autotiter method); assay type: cell-based, Aspergillus niger; conditions: 18-20 hours at 37° C.; for MIC: Aspergillus niger, 16404, 20 h, read-out: MIC A. niger 16404
How it was run: as §1

E. coli Vogel = assay: In vitro antibacterial activity, MIC (modified Autotiter method); assay type: cell-based, Escherichia coli; conditions: 18-20 hours at 37° C.; for MIC: Escherichia coli, 20 h, read-out: MIC E. coli Vogel
How it was run: as §1

E. coli 100/B22 = assay: as above; assay type: cell-based, Escherichia coli; conditions: 18-20 hours at 37° C.; for MIC: Escherichia coli, 100/B22, 20 h, read-out: MIC E. coli 100/B22
How it was run: as §1

E. coli AB1932-1 = assay: as above; assay type: cell-based, Escherichia coli; conditions: 18-20 hours at 37° C.; for MIC: Escherichia coli, AB19321, 20 h, read-out: MIC E. coli AB1932-1
How it was run: as §1

C. albicans 10231 = assay: In vitro antifungal activity, MIC (modified Autotiter method); assay type: cell-based, Candida albicans; conditions: 18-20 hours at 37° C.; for MIC: Candida albicans, 10231, 20 h, read-out: MIC C. albicans 10231
How it was run: as §1

C. albicans Wisc. = assay: as above; assay type: cell-based, Candida albicans; conditions: 18-20 hours at 37° C.; for MIC: Candida albicans, 20 h, read-out: MIC C. albicans Wisc.
How it was run: as §1

S. Aureus ATCC 6538 = assay: Effect of serum on bacteriostatic activity (serial tube dilution test); assay type: cell-based, Staphyloccocus aureus; conditions: for Fold Increase in MIC S. Aureus ATCC 6538: 40% vs 0% horse serum; for MIC: Staphylococcus aureus, ATCC6538
Experimental: (§2) Antibacterial effectiveness in the presence of serum was determined for representative examples by the standard serial tube dilution test wherein paired comparisons of minimum inhibitory concentrations (MIC) were determined in the absence and in the presence of heat inactivated (30 min. at 56° C.) horse serum (40%) in the test medium. The results are expressed as the fold increase in MIC (mcg./ml.) versus Staphyloccocus aureus and Escherichia coli caused by the presence of serum and are presented in Table B hereinbelow.

Ps. aerug. MGH-2 = assay: In vitro antibacterial activity, MIC (modified Autotiter method); assay type: cell-based, Pseudomonas aeruginosa; conditions: 18-20 hours at 37° C.; for MIC: Pseudomonas aeruginosa, 20 h, read-out: MIC Ps. aerug. MGH-2
How it was run: as §1

E. Coli ATCC 8739 = assay: Effect of serum on bacteriostatic activity (serial tube dilution test); assay type: cell-based, Escherichia coli; conditions: for Fold Increase in MIC E. Coli ATCC 8739: 40% vs 0% horse serum; for MIC: Escherichia coli, ATCC8739
Experimental: as §2

[1] = system: Herpes simplex type 2 virus; assay: Virucidal activity in vitro (plaque inhibition test); assay type: cell-based; conditions: 2 mg. of test compound on growth medium
Experimental: Virucidal activity of representative examples against Herpes simplex type 2 virus was determined in vitro employing a procedure similar to the plaque inhibition test for detection of specific inhibitors of DNA-containing viruses published by E. C. Herrmann, Jr., Proc. Soc. Exp. Biol. Med. 107, 142 (1961) wherein 2 mg. of the test compound was placed on the surface of the growth medium.

S. pyogen. C203 = assay: In vitro antibacterial activity, MIC (modified Autotiter method); assay type: cell-based, Streptococcus pyogenes; conditions: 18-20 hours at 37° C.; for MIC: Streptococcus pyogenes, 20 h, read-out: MIC S. pyogen. C203
How it was run: as §1

T. menta. 9129 = assay: In vitro antifungal activity, MIC (modified Autotiter method); assay type: cell-based, Trichophyton mentagrophytes; conditions: 18-20 hours at 37° C.; for MIC: Trichophyton mentagrophytes, 20 h, read-out: MIC T. menta. 9129
How it was run: as §1

[2] = 40% heat inactivated horse serum, read-out: MIC S. Aureus ATCC 6538 40% Serum
[3] = read-out: MIC S. Aureus ATCC 6538 0% Serum
[4] = 40% heat inactivated horse serum, read-out: MIC E. Coli ATCC 8739 40% Serum
[5] = read-out: MIC E. Coli ATCC 8739 0% Serum

Row | SMILES | MIC (K. pneum. 39645) [mg/L] | MIC (S. Aureus Smith) [mg/L] | MIC (P. mirab. MGH-1) [mg/L] | MIC (A. niger 16404) [mg/L] | MIC (E. coli Vogel) [mg/L] | MIC (E. coli 100/B22) [mg/L] | MIC (E. coli AB1932-1) [mg/L] | MIC (C. albicans 10231) [mg/L] | MIC (C. albicans Wisc.) [mg/L] | Fold Increase in MIC S. Aureus ATCC 6538 (S. Aureus ATCC 6538) [fold] | MIC (S. Aureus ATCC 6538; [2]) [mg/L] | MIC (S. Aureus ATCC 6538; [3]) [mg/L] | MIC (Ps. aerug. MGH-2) [mg/L] | Fold Increase in MIC E. Coli ATCC 8739 (E. Coli ATCC 8739) [fold] | MIC (E. Coli ATCC 8739; [4]) [mg/L] | MIC (E. Coli ATCC 8739; [5]) [mg/L] | Virucidal activity against Herpes simplex type 2 virus [1] | MIC (S. pyogen. C203) [mg/L] | MIC (T. menta. 9129) [mg/L] | further results
1 | CCCCCCNc1cc[n+](CCCCCCCCCC[n+]2ccc(NCCCCCC)cc2)cc1 [Example 33, 1,10-bis-[4-(hexylamino)-1-pyridinium]decane dibromide] | 3.9 | 0.195 | 31.3 | 3.9 | 1.95 | 1.95 | 0.98 | 1.95 | 3.9 | 16 | 1.95 | 0.125 | 31.3 | 16 | 3.9 | 0.25 | active | 0.49 | 1.95 | 
2 | CCCCCCCCNc1cc[n+](CCCCCC[n+]2ccc(NCCCCCCCC)cc2)cc1 [Example 13, 1,6-bis-[4-(octylamino)-1-pyridinium]hexane dibromide] | 3.9 | 0.5 |  |  | 1.95 | 1.95 | 1 | 1.95 | 1.95 | 128 | 31.2 | 0.25 | 31.3 | 32 | 31.2 | 1 | active | 0.5 | 0.5 | MIC P. mirab. MGH-1 (P. mirab. MGH-1): 31.3 mg/L; MIC A. niger 16404 (A. niger 16404): 3.9 mg/L
3 | Clc1ccc(Nc2cc[n+](CCCCCCCCCC[n+]3ccc(Nc4ccc(Cl)cc4)cc3)cc2)cc1 [Example 79B, 1,10-bis-[4-(p-chlorophenylamino)-1-pyridinium]decane dimethanesulfonate] | 3.1 | 0.4 | > 125 | 25 | 1.6 | 1.6 | 0.8 | 3.13 | 6.25 | 32 | 7.8 | 0.25 | 62.5 | 32 | 15.6 | 0.5 | inactive | 0.4 | 6.25 | 
4 | CCCCCCCNc1cc[n+](CCCCCCCC[n+]2ccc(NCCCCCCC)cc2)cc1 [Example 22, 1,8-bis-[4-(heptylamino)-1-pyridinium]-octanedibromide] | 1.95 | 0.39 | 62.5 | 15.6 | 1.95 | 0.98 | 0.98 | 0.98 | 1.95 | 16 | 3.9 | 0.25 |  | 8 | 3.9 | 0.5 | active |  | 1.95 | MIC Ps. aerug. MGH-2 (Ps. aerug. MGH-2): 313 mg/L; MIC S. pyogen. C203 (S. pyogen. C203): 0.49 mg/L
5 | CCCCCCNc1cc[n+](CCCCCCCCCCCC[n+]2ccc(NCCCCCC)cc2)cc1 [Example 7, 1,12-bis-[4-(hexylamino)-1-pyridinium]dodecane dibromide] |  |  |  |  |  |  |  |  |  | 16 | 1.56 | 0.1 |  | 32 | 12.5 | 0.39 | active |  |  | MIC K. pneum. 39645 (K. pneum. 39645): 1.5 mg/L; MIC S. Aureus Smith (S. Aureus Smith): 0.15 mg/L; MIC P. mirab. MGH-1 (P. mirab. MGH-1): 6.0 mg/L; MIC A. niger 16404 (A. niger 16404): 3.0 mg/L; MIC E. coli Vogel (E. coli Vogel): 0.37 mg/L; MIC E. coli 100/B22 (E. coli 100/B22): 0.37 mg/L; MIC E. coli AB1932-1 (E. coli AB1932-1): 0.37 mg/L; MIC C. albicans 10231 (C. albicans 10231): 0.74 mg/L; MIC C. albicans Wisc. (C. albicans Wisc.): 0.74 mg/L; MIC Ps. aerug. MGH-2 (Ps. aerug. MGH-2): 23.8 mg/L; MIC S. pyogen. C203 (S. pyogen. C203): 1.0 mg/L; MIC T. menta. 9129 (T. menta. 9129): 0.37 mg/L
6 | Clc1ccc(Nc2cc[n+](CCCCCCC[n+]3ccc(Nc4ccc(Cl)cc4)cc3)cc2)cc1 [Example 81, 1,7-bis-[4-(p-chlorophenylamino)-1-pyridinium]heptane dibromide] | > 125 | 0.98 | > 125 | 31.3 | 3.9 | 3.9 | 125 | 31.3 | 31.3 |  |  |  | > 125 |  |  |  | active | 0.49 | 7.8 | 
7 | c1c[n+](CCCCCCCCC[n+]2ccc(NC3CCCCC3)cc2)ccc1NC1CCCCC1 [Example 39, 1,9-bis-[4-(cyclohexylamino)-1-pyridinium]nonane dibromide] | 125 | 0.98 | > 500 | 7.8 | 31.3 | 31.3 | 31.3 | 15.6 | 15.6 |  |  |  | 500 |  |  |  | inactive | 3.9 | 3.9 | 
8 | Clc1ccc(Nc2cc[n+](CCCCCCCCC[n+]3ccc(Nc4ccc(Cl)cc4)cc3)cc2)cc1 [Example 82, 1,9-bis-[4-(p-chlorophenylamino)-1-pyridinium]nonane dibromide] | 7.8 | 0.625 | > 125 | 15.6 | 0.98 | 1.95 | 0.98 | 3.9 | 3.9 |  |  |  | 125 |  |  |  | active | 0.24 | 3.9 | 
9 | CCCCC(CC)CNc1cc[n+](CCCCCC[n+]2ccc(NCC(CC)CCCC)cc2)cc1 (centres unmarked) [Example 54, 1,6-bis-[4-(2-ethylhexylamino)-1-pyridinium]hexane dibromide] | 125 | 0.49 | > 125 | 15.6 | 7.8 | 3.9 | 1.95 | 7.8 | 7.8 |  |  |  | > 250 |  |  |  | active | 0.625 | 1.95 | 
10 | CCCCC(CC)CNc1cc[n+](CCCCCCC[n+]2ccc(NCC(CC)CCCC)cc2)cc1 (centres unmarked) [Example 55, 1,7-bis-[4-(2-ethylhexylamino)-1-pyridinium]heptane dibromide] | 7.8 | 0.49 | > 125 | 15.6 | 3.9 | 3.9 | 3.9 | 7.8 | 7.8 |  |  |  | 125 |  |  |  | active | 0.49 | 1.95 | 
11 | CCCCCCNc1cc[n+](CCCCC[n+]2ccc(NCCCCCC)cc2)cc1 [Example 31, 1,5-bis-[4-(hexylamino)-1-pyridinium]pentane dibromide] | > 125 | 1.95 | > 250 | 31.3 | 125 | 62.5 | 31.3 | 31.3 | 62.5 |  |  |  | > 125 |  |  |  | active | 0.98 | 31.3 | 
